This passage reports IC50 and fraction unbound results from PMC9124818 (Pharmacology Research & Perspectives, 2022).

What all share (format): in vitro ADME
One series deals with T1, OAT3 (Homo sapiens, UniProt Q8TCC7).
T1 construct: host or cells: HEK293
T1 sequence (Q8TCC7 1-542): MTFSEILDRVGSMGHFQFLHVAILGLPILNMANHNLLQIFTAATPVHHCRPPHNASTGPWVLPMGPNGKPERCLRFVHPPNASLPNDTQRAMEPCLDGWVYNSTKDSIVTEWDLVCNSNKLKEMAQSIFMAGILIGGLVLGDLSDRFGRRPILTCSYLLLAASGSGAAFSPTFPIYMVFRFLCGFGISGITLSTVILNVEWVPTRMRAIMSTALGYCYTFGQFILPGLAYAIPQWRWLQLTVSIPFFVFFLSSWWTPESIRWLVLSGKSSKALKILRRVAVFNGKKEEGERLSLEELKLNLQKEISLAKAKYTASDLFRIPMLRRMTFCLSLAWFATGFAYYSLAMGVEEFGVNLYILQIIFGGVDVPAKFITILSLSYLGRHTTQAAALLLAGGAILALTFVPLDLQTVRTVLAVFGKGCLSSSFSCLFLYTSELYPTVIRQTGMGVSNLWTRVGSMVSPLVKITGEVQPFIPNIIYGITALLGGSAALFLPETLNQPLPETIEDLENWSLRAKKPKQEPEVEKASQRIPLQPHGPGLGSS
Nature of the series: Transporter inhibition, uptake of [3H]-estrone-3-sulfate in HEK293 cells. As for the experimental part:
(§1) The test compound (FFA or nFFA) or the positive control substrate ([…], respectively) was added to the donor chamber. […] Cells were then washed, lysed with scintillation cocktail, and analyzed for the probe substrate with a MicroBeta scintillation counter (PerkinElmer, Hopkinton, MA). Transcellular transporter assay conditions are described in Supplemental Table 1. Calculation of IC50 values was based on bidirectional permeability of probe substrate with and without the inhibitor in MDCKII cells expressing BCRP and in Caco‐2 cells expressing P‐gp, and transporter‐dependent uptake of probe substrate in HEK293 cells expressing all other transporters (Supplemental Table 1).
(§2) The transporter-specific uptake of the probe substrate in cells was determined by subtracting the accumulation in the control cells from the accumulation in the transporter-expressing cells.

The target in another series is T2, P‐gp (Homo sapiens, UniProt P08183).
T2 construct: host or cells: Caco-2
Nature of the series: Transporter inhibition, bidirectional permeability of digoxin in Caco-2 cells. As for the experimental part: as §1
The net flux for human epithelial colorectal adenocarcinoma cells (Caco-2; P-gp) and MDCKII-BCRP inhibition determination was calculated according to the equation: […]
In general terms: Caco-2 monolayers are a common model of the intestinal barrier.

Series [1] can be described thus: Plasma protein binding, Rapid Equilibrium Device. To be noted: pooled rat or dog plasma, pH 7.4, range. As to the method:
In vitro plasma protein binding was then determined by using the Rapid Equilibrium Device (RED) with a molecular weight cutoff of 8 kDa (Thermo Fisher Scientific, Inc., Waltham, MA). […] The internal standard was niflumic acid. […] Protein binding was determined by adding a 300‐μL aliquot of the test sample or the control sample to the sample chamber of the RED and adding a 500‐μL aliquot of PBS (pH 7.4) to the buffer chamber. The device unit was sealed and incubated at 37°C for 4 h with gentle shaking (~750 rpm). After dialysis, three aliquots of the test samples (50 μL) were collected from both sample and buffer chambers and were mixed with 50 μL of methanol as “donor samples” and “acceptor samples,” respectively. […] A detailed description of the LC‐MS/MS process can be found in the Supplemental Material. Supernatant fractions were analyzed by LC‐MS/MS using an Acquity Ultra Performance Liquid Chromatography system with ethylene bridged hybrid (BEH) C18 columns (2.1 × 50 mm, 1.7 µm; Waters Corporation; Milford, MA) coupled to an API4000 mass spectrometer (AB Sciex). […] Samples were prepared in triplicate and were dialyzed for 4 h. […] Protein binding was calculated as follows: Proteinbindingratio%=100‐Unboundratio%, where Unboundratio%=AcceptorSampleConcentration/DonorSampleConcentration.

The target of the next series is T3, OCT2 (Homo sapiens, UniProt O15244).
T3 construct: host or cells: HEK293
T3 sequence (O15244 1-555): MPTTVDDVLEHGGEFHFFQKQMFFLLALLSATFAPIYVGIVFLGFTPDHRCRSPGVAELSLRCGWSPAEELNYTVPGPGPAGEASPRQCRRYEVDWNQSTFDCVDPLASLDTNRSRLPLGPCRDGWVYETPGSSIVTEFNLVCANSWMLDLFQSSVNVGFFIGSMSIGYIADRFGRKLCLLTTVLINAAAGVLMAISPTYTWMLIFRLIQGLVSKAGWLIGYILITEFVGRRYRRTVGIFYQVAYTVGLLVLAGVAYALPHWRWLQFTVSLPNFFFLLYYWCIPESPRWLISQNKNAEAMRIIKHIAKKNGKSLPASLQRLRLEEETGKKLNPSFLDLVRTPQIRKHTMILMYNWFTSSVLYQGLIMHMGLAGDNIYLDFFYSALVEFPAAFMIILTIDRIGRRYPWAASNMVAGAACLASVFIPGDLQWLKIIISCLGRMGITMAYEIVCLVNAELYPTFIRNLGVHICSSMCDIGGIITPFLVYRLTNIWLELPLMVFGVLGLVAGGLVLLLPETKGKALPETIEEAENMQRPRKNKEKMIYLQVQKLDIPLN
Nature of the series: Transporter inhibition, uptake of [14C]-metformin in HEK293 cells. To be noted: probe [14C]-metformin 10 μM.
Source text: Cells were then washed, lysed with scintillation cocktail, and analyzed for the probe substrate with a MicroBeta scintillation counter (PerkinElmer, Hopkinton, MA). Transcellular transporter assay conditions are described in Supplemental Table 1. Calculation of IC50 values was based on bidirectional permeability of probe substrate with and without the inhibitor in MDCKII cells expressing BCRP and in Caco‐2 cells expressing P‐gp, and transporter‐dependent uptake of probe substrate in HEK293 cells expressing all other transporters (Supplemental Table 1).
as §2

Where “and” joins values, the source holds several entries; their conditions need not be identical. Equal entries are not always repeated. Where two headings read alike, the source gives them in different places.

T2 sequence (P08183 whole entry): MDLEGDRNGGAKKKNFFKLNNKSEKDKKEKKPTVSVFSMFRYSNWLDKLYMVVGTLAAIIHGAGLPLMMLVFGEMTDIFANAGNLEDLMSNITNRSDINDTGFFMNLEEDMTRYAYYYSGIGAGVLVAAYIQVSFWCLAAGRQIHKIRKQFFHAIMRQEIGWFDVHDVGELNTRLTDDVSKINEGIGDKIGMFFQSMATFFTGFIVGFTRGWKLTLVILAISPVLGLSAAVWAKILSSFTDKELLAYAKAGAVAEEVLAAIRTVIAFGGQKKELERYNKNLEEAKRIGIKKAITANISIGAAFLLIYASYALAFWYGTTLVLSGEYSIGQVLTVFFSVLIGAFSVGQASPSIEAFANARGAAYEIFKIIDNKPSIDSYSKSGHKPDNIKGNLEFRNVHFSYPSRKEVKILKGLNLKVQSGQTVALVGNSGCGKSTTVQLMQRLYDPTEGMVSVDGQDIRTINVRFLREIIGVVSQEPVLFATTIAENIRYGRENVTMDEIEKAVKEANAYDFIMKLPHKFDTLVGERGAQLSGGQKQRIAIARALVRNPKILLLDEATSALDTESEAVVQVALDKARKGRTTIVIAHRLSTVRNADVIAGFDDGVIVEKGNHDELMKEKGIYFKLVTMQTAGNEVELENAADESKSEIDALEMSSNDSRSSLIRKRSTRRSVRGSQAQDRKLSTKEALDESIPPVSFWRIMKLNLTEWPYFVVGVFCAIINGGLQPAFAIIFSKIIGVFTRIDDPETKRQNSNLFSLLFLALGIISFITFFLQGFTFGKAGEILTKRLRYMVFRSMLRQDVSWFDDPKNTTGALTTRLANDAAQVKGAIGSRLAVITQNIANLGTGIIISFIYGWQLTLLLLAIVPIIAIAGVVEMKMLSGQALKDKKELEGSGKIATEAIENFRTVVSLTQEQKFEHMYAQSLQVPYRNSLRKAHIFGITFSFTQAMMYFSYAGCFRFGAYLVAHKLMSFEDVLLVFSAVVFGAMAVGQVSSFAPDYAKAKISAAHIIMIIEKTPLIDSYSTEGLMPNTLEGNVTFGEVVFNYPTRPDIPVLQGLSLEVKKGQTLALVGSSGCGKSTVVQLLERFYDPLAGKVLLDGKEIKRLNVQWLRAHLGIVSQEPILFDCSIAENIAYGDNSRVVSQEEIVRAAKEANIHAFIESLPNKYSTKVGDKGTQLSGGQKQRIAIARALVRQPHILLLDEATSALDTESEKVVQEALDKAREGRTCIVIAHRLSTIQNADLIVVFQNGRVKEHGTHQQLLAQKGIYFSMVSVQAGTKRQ

Take `CCNC(C)Cc1cccc(C(F)(F)F)c1` (racemic) [FFA, (RS)‐ethyl(α‐methyl‐3‐trifluoromethylphenethyl)amine, reference compound]: the half-maximal inhibitory concentration (IC50) – broadly, the concentration that gives 50% inhibition – against OAT3 is greater than 30 µM; at P‐gp it was greater than 100 µM. The unbound share (fraction unbound) (commonly free concentration divided by total concentration) at 4 h in series [1] fell in the range of 0.378 to 0.538.

Regarding `CC(N)Cc1cccc(C(F)(F)F)c1.Cl` (stereo not drawn) [nFFA, [1‐(3‐trifluoromethyl)phenyl]propan‐2‐amine hydrochloride], the half-maximal inhibitory concentration (IC50) on OAT3 (HEK293, probe [3H]-estrone-3-sulfate 50 nM, read-out: IC50) was greater than 50 µM; at OCT2 it was 5.21 µM and 5.2 µM; on P‐gp (Caco-2, probe digoxin 10 µM, read-out: IC50) it was greater than 50 µM.
